Assay results as given in patent US7887818B2, “Neospora caninum vaccine” (The United States of America as represented by the …, priority 2008, dated 2011).

Key:
NcSRS2 [1] = test: ELISA of NcSRS2-specific antibody levels in sera of vaccinated mice; format: in vivo, N. caninum; settings: mouse sera 1:100, both trials, 3 weeks after challenge
Method: (§1) Adult female BALB/c mice (10-12 weeks old; 15 per group; National Cancer Institute, Frederick, Md.) were immunized s.c. in the lower back with a dose of 20 μg of rNcCyP, rNcSRS2, or 20 μg each of NcCyP and NcSRS2 formulated with adjuvants ImmuMax-SR® (a chitosan-based oil emulsion formulation [U.S. Pat. No. 5,980,912; Nov. 9, 1999]; (Repros Therapeutics Inc., formerly Zonagen Inc., TX) and CpG (ImmunoEasy, Qiagen) (Groups 1, 2, and 3). Control groups received non-recombinant antigen formulated with adjuvants ImmuMax-SR® and CpG (Group 4) or RPMI 1640 alone (Groups 5 and 6). The mice were given a secondary immunization 3 weeks later with the same preparation used in the primary immunization. All mice except for those in Group 6 were challenged s.c. with 10^5 N. caninum tachyzoites (NC1 isolate) in 50 μl RPMI 1640 three weeks following the secondary immunization. Group 6 mice received RPMI 1640 only and remained uninfected throughout the experiment (Table 1). […]
(§2) Antigen-specific antibody levels of vaccinated mice were determined by ELISA using purified rNcCyP or rNcSRS2. […] The wells were incubated with alkaline phosphatase-labeled goat anti-mouse IgG (H+L ch. sp., 1:5,000, Sigma) for 1 hr at RT, followed by addition of p-nitrophenyl phosphate substrate (Sigma), and reading on a microtiter plate reader at […].

[2] = test system: N. caninum tachyzoites (NC1 isolate); test: Vaccination and N. caninum tachyzoite challenge; N. caninum-specific Nc5 PCR on brain tissue; format: in vivo, BALB/c mice; settings: for Positive/Total = number of mice brain positive for N. caninum DNA/total mice in the group: 3 weeks after s.c. challenge with 10^5 tachyzoites; for level of protection against challenge infection compared to control groups: vs non-recombinant- or non-vaccinated groups
Method: (§3) Adult female BALB/c mice (10-12 weeks old; 15 per group; National Cancer Institute, Frederick, Md.) were immunized s.c. in the lower back with a dose of 20 μg of rNcCyP, rNcSRS2, or 20 μg each of NcCyP and NcSRS2 formulated with adjuvants ImmuMax-SR® (a chitosan-based oil emulsion formulation [U.S. Pat. No. 5,980,912; Nov. 9, 1999]; (Repros Therapeutics Inc., formerly Zonagen Inc., TX) and CpG (ImmunoEasy, Qiagen) (Groups 1, 2, and 3). Control groups received non-recombinant antigen formulated with adjuvants ImmuMax-SR® and CpG (Group 4) or RPMI 1640 alone (Groups 5 and 6). The mice were given a secondary immunization 3 weeks later with the same preparation used in the primary immunization. All mice except for those in Group 6 were challenged s.c. with 10^5 N. caninum tachyzoites (NC1 isolate) in 50 μl RPMI 1640 three weeks following the secondary immunization. Group 6 mice received RPMI 1640 only and remained uninfected throughout the experiment (Table 1). All mice were euthanized 3 weeks after challenge infection, and brain tissue and blood were collected at necropsy and processed for Neospora DNA and serum antibody analysis as described (Liddell et al. 1999b. Int J. Parasitol. 29: 1583-1587). Animal use and care of the present study was approved by the BARC Animal Use and Care Committee in accordance with appropriate regulations.
Mouse brain tissue was extracted for DNA using standard procedures (Jenkins et al. 2004, supra). The presence of N. caninum in brain tissue was determined by N. caninum-specific Nc5 PCR using Np6/Np21 primers (Muller et al. 1996. J. Clin. Microbiol. 34: 2850-2852; Yamage et al. 1996. J. Parasitol. 82: 272-279) and an internal standard to control for false negative reactions as described (Jenkins et al. 2004a, supra; Liddell et al. 1999a, supra).

NcCyP [3] = test: ELISA of NcCyP-specific antibody levels in sera of vaccinated mice; format: in vivo, N. caninum; settings: mouse sera 1:100, both trials, 3 weeks after challenge
Method: as §1, §2

NcSRS2 [4] = test: Western blot detection of anti-NcSRS2 antibodies in mouse sera (NcAg as antigen); format: in vivo, N. caninum
Method: as §3, with “regulations. […]” for “regulations.”

NcCyP [5] = test: Western blot detection of anti-NcCyP antibodies in mouse sera (NcAg as antigen); format: in vivo, N. caninum; settings: for percent of mice with detectable antibodies against NcCyP: overall data from both trials
Method: as §3
The presence of specific antibodies to NcCyP or NcSRS2 was also confirmed with Western blotting using NcAg as antigen (FIG. 5). In brief, N. caninum tachyzoite protein (equivalent to 10^6 tachyzoites/blot strip) were fractionated by SDS-PAGE under reducing conditions and transblotted to Immobilon membrane (Millipore) in a semi-dry blot apparatus (BioRad). Low-range molecular weight markers (BioRad) were electrophoresed in a separate well to allow for Mr estimation of native N. caninum tachyzoite protein. After blotting, the membranes were cut into vertical strips, treated with blocking agent (PBS-2% non-fat dry milk) for 30 min at RT, and then incubated for 2 hr at RT with a 1:100 dilution of serum from individual mice in each treatment group. The blot strips were then incubated for 1 hr with biotinylated goat anti-mouse IgG (H+L ch. sp., 1:1000 dilution, Sigma Chemical Co.), followed by alkaline-phosphatase-labeled avidin (1:25,000 dilution, Sigma), and developed with NBT-BCIP substrate (Pierce). The blots were washed 3 times between each incubation step with PBS-0.05% Tween 20 (Sigma).

Substance: Group 1: recombinant Neospora caninum cyclophilin protein (SEQ ID NO:2), 20 μg formulated with adjuvants ImmuMax-SR and CpG
- levels of NcSRS2-specific antibodies (ELISA) compared to other groups (NcSRS2 [1]): higher (p<0.05)
- Positive/Total = number of mice brain positive for N. caninum DNA/total mice in the group ([2]; Trial I): 1/15
- Positive/Total = number of mice brain positive for N. caninum DNA/total mice in the group ([2]; Trial II): 3/15
- average percent of mice brain-positive for N. caninum ([2]; average of both trials): 13%
- percent protection ([2]; for both trials, (mice brain negative for Nc DNA/total)x100, formulated with ImmuMax-SR/CpG): 80-93%
- Positive/Total (Mean) ([2]; mean positive/total from trials I and II): 2/15
- percent of mice brain-positive for N. caninum, range over the trials ([2]; range of trials I and II): 7-20%
- level of protection against challenge infection compared to control groups ([2]; listed as NcCyP): significantly higher protection
- level of protection against challenge infection compared to control groups ([2]; listed as rNcCyP): higher (p<0.001) levels of protection
- levels of NcCyP-specific antibodies (ELISA) compared to other groups (NcCyP [3]): significantly higher (p<0.01)
- number of mice with detectable anti-NcSRS2 Ab in total mice of the group (NcSRS2 [4]; Trial I): 0/14
- number of mice with detectable anti-NcSRS2 Ab in total mice of the group (NcSRS2 [4]; Trial II): 0/15
- number of mice with detectable anti-NcCyP Ab in total mice of the group (NcCyP [5]; Trial I): 11/14^3
- number of mice with detectable anti-NcCyP Ab in total mice of the group (NcCyP [5]; Trial II): 12/15
- percent of mice with detectable antibodies against NcCyP (NcCyP [5]; listed as NcCyP): about 77%
- percent of mice with detectable antibodies against NcCyP (NcCyP [5]; listed as rNcCyP): 78%
